From ChEMBL document CHEMBL5042470, “Combined Cardioprotective and Adipocyte Browning Effects Promoted by the Eutomer of Dual sEH/PPARγ Modulator” (J Med Chem, 2021)
Active and inactive are the calls of the source. The calls are words filed in the database; no cut-off is given here.

What was measured:
[1] = test system: SGBS; assay: Induction of browning in human SGBS cells assessed as increase in UQCRC2 mRNA expression by qRT-PCR analysis; assay type: functional, cell-based; conditions: dose 0.01-1 µM
[2] = test system: SGBS; assay: Induction of adipogenic differentiation in human SGBS cells assessed as increase in perilipin A mRNA expression A at 0.01 to 1 uM by RT-PCR analysis; assay type: functional, cell-based; conditions: dose 0.01-1 µM
[3] = test system: SGBS; assay: Induction of cellular respiration in human SGBS cells assessed as increase in oxygen consumption rate at 0.01 to 1 uM with ATP-linked sequential addition of FCCP measured after 14 days by Seahorse XFe96 flux analyzer; assay type: functional, cell-based; conditions: dose 0.01-1 µM, time 14.0 day
[4] = test system: SGBS; assay: Induction of basal respiration in human SGBS cells assessed as increase in oxygen consumption rate at 0.01 to 1 uM incubated for 14 days in presence of dibutyryl-cAMP by Seahorse XFe96 flux analyzer; assay type: functional, cell-based; conditions: dose 0.01-1 µM, time 14.0 day
[5] = test system: SGBS; assay: Induction of browning in human SGBS cells assessed as increase in UQCRC2 mRNA expression at 0.01 to 1 uM by qRT-PCR analysis; assay type: functional, cell-based; conditions: dose 0.01-1 µM
[6] = test system: SGBS; assay: Induction of adipogenic differentiation in human SGBS cells assessed as intracellular lipid droplet accumulation at 0.01 to 1 uM measured after 4 days by Nile red staining based imaging analysis; assay type: functional, cell-based; conditions: dose 0.01-1 µM, time 4.0 day
[7] = test system: SGBS; assay: Induction of proton leakage in human SGBS cells assessed as increase in oxygen consumption rate at 0.01 to 1 uM with sequential addition of oligomycin measured after 14 days by Seahorse XFe96 flux analyzer; assay type: functional, cell-based; conditions: dose 0.01-1 µM, time 14.0 day
[8] = test system: SGBS; assay: Induction of browning in human SGBS cells assessed as increase in UCP1 mRNA expression at 0.01 to 1 uM by RT-PCR analysis; assay type: functional, cell-based; conditions: dose 0.01-1 µM
[9] = test system: Heart; assay: Cardioprotective activity in Langendorff-perfused wild-type C57BL/6 mouse heart assessed as increase in heart rate at 3 nM; assay type: functional, tissue-based
[10] = test system: Heart; assay: Cardioprotective activity in Langendorff-perfused wild-type C57BL/6 mouse heart assessed as increase in heart rate at 30 nM; assay type: functional, tissue-based
[11] = species: Mus musculus; assay: Cardioprotective activity in Langendorff-perfused wild-type C57BL/6 mouse model of coronary occlusion induced ischemia/reperfusion assessed as decrease in left ventricular end diastolic pressure at 3 nmol/L followed by ischemia for 20 mins and measured 2 hrs after reperfusion […]; assay type: functional, organism-based; conditions: time 140.0 min
[12] = target: T1, Peroxisome proliferator-activated receptor alpha (Homo sapiens) (UniProt Q07869); assay: Agonist activity at human GAL4 DBD-fused PPARalpha ( 164 to 466 residues) LBD transfected in HEK293T cells assessed as fold activation at 10 uM incubated for 14 to 16 hrs by Renilla/Firefly dual-luciferase reporter assay; assay type: cell-based; conditions: filed as agonist, time 14-16 hrs
T1 sequence (whole entry): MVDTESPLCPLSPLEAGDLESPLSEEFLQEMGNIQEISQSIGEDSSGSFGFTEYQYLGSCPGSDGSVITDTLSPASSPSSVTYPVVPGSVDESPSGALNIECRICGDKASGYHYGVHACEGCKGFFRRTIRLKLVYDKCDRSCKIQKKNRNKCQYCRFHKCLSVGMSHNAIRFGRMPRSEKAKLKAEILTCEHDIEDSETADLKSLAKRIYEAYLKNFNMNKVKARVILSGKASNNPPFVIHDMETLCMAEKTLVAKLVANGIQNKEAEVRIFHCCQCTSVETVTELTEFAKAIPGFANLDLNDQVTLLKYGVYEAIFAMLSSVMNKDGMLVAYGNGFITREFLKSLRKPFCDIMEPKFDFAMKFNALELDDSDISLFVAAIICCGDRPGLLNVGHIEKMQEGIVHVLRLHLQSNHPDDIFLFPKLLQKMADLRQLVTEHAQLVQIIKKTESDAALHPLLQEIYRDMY

[13] = target: T2, Vitamin D3 receptor (Homo sapiens) (UniProt P11473); assay: Agonist activity at human GAL4 DBD-fused VDR LBD (119 to 427 residues) transfected in HEK293T cells assessed as fold activation at 10 uM incubated for 14 to 16 hrs by Renilla/Firefly dual-luciferase reporter assay; assay type: cell-based; conditions: time 14-16 hrs
T2 sequence (whole entry): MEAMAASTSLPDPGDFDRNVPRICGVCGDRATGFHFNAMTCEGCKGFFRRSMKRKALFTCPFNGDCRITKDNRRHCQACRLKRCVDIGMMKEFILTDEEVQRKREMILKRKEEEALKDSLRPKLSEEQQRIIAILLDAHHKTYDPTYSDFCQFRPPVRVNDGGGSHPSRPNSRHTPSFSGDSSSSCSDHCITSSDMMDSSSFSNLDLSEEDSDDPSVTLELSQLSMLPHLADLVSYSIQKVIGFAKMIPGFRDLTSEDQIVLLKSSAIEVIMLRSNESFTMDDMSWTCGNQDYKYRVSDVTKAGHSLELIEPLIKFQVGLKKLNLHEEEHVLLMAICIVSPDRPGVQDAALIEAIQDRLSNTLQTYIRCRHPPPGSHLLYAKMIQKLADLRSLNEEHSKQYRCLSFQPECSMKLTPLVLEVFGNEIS

[14] = test system: Heart; assay: Cardioprotective activity in Langendorff-perfused wild-type C57BL/6 mouse heart assessed as increase in heart rate at 300 nM; assay type: functional, tissue-based
[15] = species: Mus musculus; assay: Cardioprotective activity in Langendorff-perfused wild-type C57BL/6 mouse model of coronary occlusion induced ischemia/reperfusion assessed as increase in left ventricular developed pressure at 3 nmol/L followed by ischemia for 20 mins and measured 2 hrs after reperfusion […]; assay type: functional, organism-based; conditions: time 140.0 min
[16] = target: T3, Oxysterols receptor LXR-alpha (Homo sapiens) (UniProt Q13133); assay: Agonist activity at human GAL4 DBD-fused LXRalpha LBD (182 to 447 residues) transfected in HEK293T cells assessed as fold activation at 10 uM incubated for 14 to 16 hrs by Renilla/Firefly dual-luciferase reporter assay; assay type: cell-based; conditions: time 14-16 hrs
T3 sequence (whole entry): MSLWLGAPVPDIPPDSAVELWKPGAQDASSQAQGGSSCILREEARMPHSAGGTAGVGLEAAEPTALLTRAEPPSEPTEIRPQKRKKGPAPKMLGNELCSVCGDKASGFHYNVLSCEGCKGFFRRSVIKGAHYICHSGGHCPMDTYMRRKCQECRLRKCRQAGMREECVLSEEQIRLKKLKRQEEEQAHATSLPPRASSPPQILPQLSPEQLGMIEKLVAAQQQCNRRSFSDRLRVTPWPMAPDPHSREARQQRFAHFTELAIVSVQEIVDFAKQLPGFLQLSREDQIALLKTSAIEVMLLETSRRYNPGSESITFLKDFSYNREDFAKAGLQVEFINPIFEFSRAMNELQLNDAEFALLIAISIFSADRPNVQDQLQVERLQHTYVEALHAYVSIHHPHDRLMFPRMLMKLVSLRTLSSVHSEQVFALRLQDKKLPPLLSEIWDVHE

[17] = target: T4, Peroxisome proliferator-activated receptor delta (Homo sapiens) (UniProt Q03181); assay: Agonist activity at human GAL4 DBD-fused PPARdelta LBD (138 to 441 residues) transfected in HEK293T cells assessed as fold activation at 10 uM incubated for 14 to 16 hrs by Renilla/Firefly dual-luciferase reporter assay; assay type: cell-based; conditions: time 14-16 hrs
T4 sequence (whole entry): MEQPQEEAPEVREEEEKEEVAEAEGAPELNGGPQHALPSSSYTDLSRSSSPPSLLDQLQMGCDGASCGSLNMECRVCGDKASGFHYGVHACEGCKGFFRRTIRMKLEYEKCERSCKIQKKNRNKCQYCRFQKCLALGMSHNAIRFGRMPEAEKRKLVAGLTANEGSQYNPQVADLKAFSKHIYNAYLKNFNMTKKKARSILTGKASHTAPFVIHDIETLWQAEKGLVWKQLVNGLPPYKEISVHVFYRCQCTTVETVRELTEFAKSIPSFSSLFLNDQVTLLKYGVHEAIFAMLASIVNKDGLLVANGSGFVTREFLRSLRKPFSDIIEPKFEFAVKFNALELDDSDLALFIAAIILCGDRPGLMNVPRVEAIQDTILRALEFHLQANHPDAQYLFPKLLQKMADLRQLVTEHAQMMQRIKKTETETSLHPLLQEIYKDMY

[18] = target: T5, Retinoic acid receptor alpha (Homo sapiens) (UniProt P10276); assay: Agonist activity at human GAL4 DBD-fused RARalpha LBD (177 to 462 residues) transfected in HEK293T cells assessed as fold activation at 10 uM incubated for 14 to 16 hrs by Renilla/Firefly dual-luciferase reporter assay; assay type: cell-based; conditions: time 14-16 hrs
T5 sequence (whole entry): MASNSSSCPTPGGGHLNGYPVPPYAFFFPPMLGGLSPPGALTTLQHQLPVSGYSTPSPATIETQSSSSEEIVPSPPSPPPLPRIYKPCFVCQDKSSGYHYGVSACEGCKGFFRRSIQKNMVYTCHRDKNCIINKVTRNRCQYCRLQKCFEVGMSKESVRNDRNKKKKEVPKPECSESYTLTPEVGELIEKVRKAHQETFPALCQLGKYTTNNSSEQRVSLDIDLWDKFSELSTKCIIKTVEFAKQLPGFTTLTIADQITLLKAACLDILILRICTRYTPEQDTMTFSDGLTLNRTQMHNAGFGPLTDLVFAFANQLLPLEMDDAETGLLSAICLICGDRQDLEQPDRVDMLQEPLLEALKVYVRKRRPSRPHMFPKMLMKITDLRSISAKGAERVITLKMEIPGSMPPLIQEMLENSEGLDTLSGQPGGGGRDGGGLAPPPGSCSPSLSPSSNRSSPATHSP

Compound	Activity [1]	Activity [2]	Activity [3]	Activity [4]	Activity [5]	Activity [6]	Activity [7]	Activity [8]	Activity [9]	Activity [10]	Activity [11]	Activity [12]	Activity [13]	Activity [14]	Activity [15]	Activity [16]	Activity [17]	Activity [18]
CN(CCOc1ccc(CC2SC(=O)NC2=O)cc1)c1ccccn1 (configuration not stated)	Dose-Dependent Effect	Active	–	–	–	–	–	–	–	–	–	–	–	–	–	–	–	–
CC[C@@H](Cc1ccc(C(=O)NCc2ccc(OC)cc2C(F)(F)F)cc1)C(=O)O	–	Active	Active	Active	inactive	inactive	Active	inactive	–	–	–	–	–	–	–	–	–	–
O=C(NC12CC3CC(CC(C3)C1)C2)N[C@H]1CC[C@H](Oc2ccc(C(=O)O)cc2)CC1	–	–	–	–	–	–	–	–	inactive	Active	–	–	–	–	–	–	–	–
CC[C@H](Cc1ccc(C(=O)NCc2ccc(OC)cc2C(F)(F)F)cc1)C(=O)O	–	Active	Active	Active	inactive	Active	Active	Active	inactive	–	Active	Active	inactive	Active	Active	inactive	inactive	inactive
